From ChEMBL document CHEMBL1138324, “Synthesis and nicotinic acetylcholine receptor binding properties of bridged and fused ring analogues of epibatidine” (J Med Chem, 2007)

Columns and labels:
[1] = target: T1, Neuronal acetylcholine receptor; alpha4/beta2 (Homo sapiens, UniProt P17787+P43681); assay: Displacement of [3H]epibatidine from alpha-4-beta-2 nAChR at 31.6 uM; type: protein-complex assay
[2] = target: Neuronal acetylcholine receptor subunit alpha-7 (Homo sapiens) (UniProt P36544); assay: Displacement of [125I]iodoMLA from alpha-7 nAChR at 50 nM
[3] = target: T1, Neuronal acetylcholine receptor; alpha4/beta2; assay: Displacement of [3H]epibatidine from alpha-4-beta-2 nAChR; type: protein-complex assay
Mus musculus [4] = assay: Antinociceptive effect in mouse at 10 mg/kg by tail flick test; type: functional
Mus musculus [5] = assay: Antinociceptive effect in mouse at 10 mg/kg by hot plate test; type: functional
Mus musculus [6] = assay: Effect on hypothermia in mouse assessed as change in body temperature at 10 mg/kg; type: functional
Mus musculus [7] = species: Mus musculus; assay: Antinociceptive effect in mouse by tail flick test; type: functional
Mus musculus [8] = species: Mus musculus; assay: Antinociceptive effect in mouse by hot plate test; type: functional
Mus musculus [9] = species: Mus musculus; assay: Effect on hypothermia in mouse assessed as change in body temperature; type: functional
Mus musculus [10] = assay: Inhibition of nicotine-induced antinociceptive effect in sc dosed mouse by tail flick test; type: functional
Mus musculus [11] = assay: Inhibition of nicotine-induced antinociceptive effect in sc dosed mouse by hot plate test; type: functional
Mus musculus [12] = assay: Inhibition of nicotine-induced hypothermia in mouse assessed as change in body temperature at 5000 ug/kg, sc; type: functional; parameters: scale not given: the % may be the effect or the level left
Mus musculus [13] = assay: Inhibition of nicotine-induced antinociceptive effect in mouse at 15000 ug/kg, sc by hot plate test; type: functional
Mus musculus [14] = assay: Inhibition of nicotine-induced hypothermia in mouse assessed as change in body temperature at 15000 ug/kg, sc; type: functional; parameters: scale not given: the % may be the effect or the level left
Mus musculus [15] = assay: Inhibition of nicotine-induced hypothermia in mouse assessed as change in body temperature at 0.5 ug/kg, sc; type: functional; parameters: scale not given: the % may be the effect or the level left
Mus musculus [16] = assay: Inhibition of nicotine-induced antinociceptive effect in mouse at 0.5 ug/kg, sc by hot plate test; type: functional

T1 sequence (P17787 whole entry): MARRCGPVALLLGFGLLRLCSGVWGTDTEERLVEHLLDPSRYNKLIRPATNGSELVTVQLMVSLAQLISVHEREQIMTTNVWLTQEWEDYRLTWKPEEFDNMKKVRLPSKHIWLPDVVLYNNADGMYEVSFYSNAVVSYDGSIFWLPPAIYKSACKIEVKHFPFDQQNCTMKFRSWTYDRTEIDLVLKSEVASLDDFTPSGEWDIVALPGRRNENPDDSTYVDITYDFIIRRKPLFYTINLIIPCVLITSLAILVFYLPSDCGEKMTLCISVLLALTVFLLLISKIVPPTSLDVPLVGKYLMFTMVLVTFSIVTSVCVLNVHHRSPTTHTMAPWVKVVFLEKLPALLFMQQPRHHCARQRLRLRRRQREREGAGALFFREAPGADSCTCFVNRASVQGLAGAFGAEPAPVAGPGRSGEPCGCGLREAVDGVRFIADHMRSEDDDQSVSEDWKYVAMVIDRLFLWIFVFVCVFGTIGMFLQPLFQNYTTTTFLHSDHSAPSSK
T1 sequence (P43681 whole entry): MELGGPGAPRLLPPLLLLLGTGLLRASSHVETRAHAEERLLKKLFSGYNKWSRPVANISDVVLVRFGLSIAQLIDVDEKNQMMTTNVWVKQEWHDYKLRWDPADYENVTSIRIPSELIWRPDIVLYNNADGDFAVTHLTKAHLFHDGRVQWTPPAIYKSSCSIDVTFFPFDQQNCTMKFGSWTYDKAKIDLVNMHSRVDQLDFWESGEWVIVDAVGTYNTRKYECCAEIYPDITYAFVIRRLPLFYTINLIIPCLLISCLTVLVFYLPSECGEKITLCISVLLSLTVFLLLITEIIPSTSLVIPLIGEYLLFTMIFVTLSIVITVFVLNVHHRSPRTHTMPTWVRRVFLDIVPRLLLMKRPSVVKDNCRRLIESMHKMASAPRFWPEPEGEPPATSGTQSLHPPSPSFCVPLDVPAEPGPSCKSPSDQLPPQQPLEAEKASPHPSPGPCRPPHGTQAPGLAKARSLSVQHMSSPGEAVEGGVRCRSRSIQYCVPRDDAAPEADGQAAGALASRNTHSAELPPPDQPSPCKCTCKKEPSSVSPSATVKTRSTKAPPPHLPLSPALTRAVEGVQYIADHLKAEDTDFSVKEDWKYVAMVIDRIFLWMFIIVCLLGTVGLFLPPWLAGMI
Neuronal acetylcholine receptor subunit alpha-7 (Homo sapiens), sequence (P36544 whole entry): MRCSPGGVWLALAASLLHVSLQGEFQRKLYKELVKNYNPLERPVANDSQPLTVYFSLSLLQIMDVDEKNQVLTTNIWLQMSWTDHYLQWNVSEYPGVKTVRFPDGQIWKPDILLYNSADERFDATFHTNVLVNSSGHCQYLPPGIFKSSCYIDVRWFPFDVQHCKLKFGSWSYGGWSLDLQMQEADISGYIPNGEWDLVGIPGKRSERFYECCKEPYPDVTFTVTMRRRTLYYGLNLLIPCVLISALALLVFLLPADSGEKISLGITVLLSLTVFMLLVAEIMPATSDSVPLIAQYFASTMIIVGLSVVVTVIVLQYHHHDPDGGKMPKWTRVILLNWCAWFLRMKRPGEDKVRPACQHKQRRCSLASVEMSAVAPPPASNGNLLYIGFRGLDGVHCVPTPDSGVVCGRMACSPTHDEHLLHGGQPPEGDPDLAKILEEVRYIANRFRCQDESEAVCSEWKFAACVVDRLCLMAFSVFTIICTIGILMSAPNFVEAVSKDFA

SMILES	Activity [2] [%]	Ki [3] [nM]	Activity (Mus musculus [4]) [%]	Activity (Mus musculus [5]) [%]	Activity (Mus musculus [6]) [%]	other results
C1=CC2NC1c1ccncc12 (stereo not drawn)	0	–	–	–	–	Activity [1]: < 15%
Clc1cc2c(cn1)C1CC3CCC1N3C2 (stereo not drawn)	–	3330	2	18	0	–
c1cnc2c(c1)C1CCC2N1 (stereo not drawn)	0	–	–	–	–	Activity [1]: < 15%
c1cc2c(cn1)C1CCC2N1 (stereo not drawn)	0	–	–	–	–	Activity [1]: < 15%
Clc1ccc2c(n1)CN1C3CCC1C2C3 (stereo not drawn)	–	–	3	17	0	–
Nc1cc2c(cn1)C1CC3CCC1N3C2 (stereo not drawn)	–	12400	2	16	0	–
Clc1ccc([C@@H]2C[C@H]3CC[C@@H]2N3)cn1 [(+)-EPIBATIDINE]	–	–	–	–	–	ED50 (Mus musculus [7]): 6 µg/kg; ED50 (Mus musculus [8]): 4 µg/kg; ED50 (Mus musculus [9]): 4 µg/kg
Cc1cc(Cl)ncc1C1CC2CCC1N2 (stereo not drawn)	–	–	4	20	0	AD50 (Mus musculus [10]): 400 µg/kg; AD50 (Mus musculus [11]): 1200 µg/kg; Activity (Mus musculus [12]): 0%
Cc1nc(Cl)ccc1C1CC2CCC1N2 (stereo not drawn)	–	256	1	14	0	AD50 (Mus musculus [10]): 9000 µg/kg; inhibition in vivo at 15 mg/kg (Mus musculus [13]): 10%; Activity (Mus musculus [14]): 0%
Clc1ccc(C2CC3NC2c2ccccc23)cn1 (stereo not drawn)	0	65.2	–	–	–	–
Fc1ncc(C2CC3NC2c2ccccc23)cc1-c1ccccc1 (stereo not drawn)	0	128	–	–	–	–
CN1C2CCC1C(c1ccc(Cl)nc1)C2 (stereo not drawn)	–	0.038	–	–	–	ED50 (Mus musculus [7]): 4.4 µg/kg; ED50 (Mus musculus [8]): 3 µg/kg; ED50 (Mus musculus [9]): 3 µg/kg; AD50 (Mus musculus [10]): 0.048 µg/kg; Activity (Mus musculus [15]): 0%; inhibition in vivo at 0.0005 mg/kg (Mus musculus [16]): 23%
Nc1ccc2c(n1)CN1C3CCC1C2C3 (stereo not drawn)	–	7370	4	10	0	–
